Data from US7485434B2, “Method for screening compounds for those that modulate transducers of regulated CREB activity” (The Salk Institute for Biological Studies, priority 2005, dated 2009).

How the values were obtained:
[1] = test system: TORC2; test: TORC2 phosphorylation in primary rat hepatocytes (Western blot); assay type: cell-based; conditions: primary hepatocytes; AICAR 1 mM, in the presence of FSK, 30 minutes
Source text: FIG. 18B illustrates the effect of CHX on levels of phospho (Ser171) TORC2 in primary rat hepatocytes treated with glucagon over a variety of time points, shown in hours. Western blot assay indicates the levels of TORC2, phospho (Ser171) TORC2 and CREB.
Specifically, FIG. 19A, top, presents a Western blot showing the effect of US and SIK1 RNAi adenoviruses on the levels of SIK1 protein in rat hepatocytes. FIG. 19A, bottom, presents a Western blot assay with nondiscriminating TORC2 antiserum, showing the effect of SIK1 RNAi adenovirus on TORC2 dephosphorylation (compare P-TORC2 and TORC2 bands) following exposure of primary rat hepatocytes to glucagon (Gluc). The arrow identifies phosphorylated TORC2.
Cells were exposed to AICAR and FSK for 30 minutes. Lower mobility bands (arrow) indicate phosphorylated TORC2 polypeptides.
Rat primary hepatocytes were prepared from 200-300g of Sprague-Dawley rats by collagenase perfusion method as described previously (see Koo et al., 2004). 1×10^6 cells were plated in 6 well plates with medium 199 (Invitrogen, Carlsbad, Calif.) supplemented by 10% FBS, 10 units/ml penicillin, 10 μg/ml streptomycin, and 10 nM dexamethasone for 3-6 hours. After attachment, cells were infected with adenoviruses for 16 hours. Subsequently, cells were maintained in medium 199 without FBS and dexamethasone for 24 hours (for cDNA expression adenoviruses) or 48 hours (for RNAi adenoviruses) and […] forskolin or 100 nM glucagon for 2 hours unless noted otherwise. For experiments with cycloheximide, 10 μg/ml cycloheximide was added 30 minutes prior to the addition of 100 nM glucagon.
Like other signaling pathways, cAMP stimulates gluconeogenic gene expression with burst-attenuation kinetics (see Sasaki et al., 1984). Following exposure of primary hepatocytes to Forskolin, PEPCK mRNA levels became maximal after 2 hours, returning to near baseline after 4 hours (see FIG. 18A). […] Consistent with this, CHX pre-treatment potentiated gluconeogenic gene expression in primary rat hepatocytes exposed to glucagon 2-3 fold (see FIG. 18C). […]

[2] = test system: TORC2; test: Cellular localization of TORC2 in primary rat hepatocytes; assay type: cell-based; conditions: wild-type or Ser171Ala TORC2
Protocol: FIG. 20C illustrate the effect of AICAR and SIK1 on cellular localization of wild-type or Ser171 Ala TORC2 in primary rat hepatocytes. Cells were infected with adenoviruses for HA-tagged wild-type or mutant TORC2 and SIK1 as indicated. Infected cells were exposed to FSK and AICAR for 30 minutes. TORC2 localization was examined with anti-HA antiserum. Cells were counterstained with DAP1 to visualize nuclei.
Based on its ability to promote Ser171 phosphorylation, AMPK might be expected to inhibit nuclear entry of TORC2 in cells exposed to FSK. […] Confirming the pivotal role of Ser171 in this regard, mutant Ser171Ala TORC2 remained constitutively nuclear under both conditions.

[3] = test system: gluconeogenic genes (PEPCK, PGC-1α, G6Pase); test: Q-PCR of gluconeogenic gene expression in primary rat hepatocytes; assay type: cell-based; conditions: primary hepatocytes
Protocol: Specifically, FIG. 17A illustrates the effect of TORC2 on induction of gluconeogenic genes (PEPCK, PGC-1α, G6Pase) by FSK (10 μM, 2 hr) in cultured primary rat hepatocytes infected with TORC2 or control GFP adenovinus as indicated.
FIGS. 18A-18H illustrate that the induction of the AMP kinase family member SIK1 by CREB during fasting attenuates the gluconeogenic program. Specifically, FIG. 18A illustrates the time course of PEPCK gene expression in primary rat hepatocytes following exposure to FSK. mRNA levels were determined by Q-PCR analysis.
FIG. 18C illustrates the effect of CHX pretreatment on induction of gluconeogenic genes (PEPCK, PGC-1α, G6Pase) by glucagon in primary rat hepatocytes. Relative mRNA levels are shown.
FIG. 19B summarizes the effect of SIK1 RNAi on gluconeogenic gene expression in primary rat hepatocytes, presenting Q-PCR analysis showing the relative induction of PEPCK, PGC-1α, and G6Pase mRNAs by glucagon in cells infected with control (US) or SIK1 RNAi expressing adenoviruses.
FIG. 20D summarizes the effect of AlCAR on expression of gluconeogenic genes (PEPCK, PGC-1α) in primary rat hepatocytes. Cells infected with mutant Ser171Ala TORC2 (171) adenovinus indicated. Treatment with AICAR and FSK is shown.
Rat primary hepatocytes were prepared from 200-300g of Sprague-Dawley rats by collagenase perfusion method as described previously (see Koo et al., 2004). […]

[4] = test system: AMPK; conditions: cited from earlier work

SMILES: NC(=O)c1ncn([C@@H]2O[C@H](CO)[C@@H](O)[C@H]2O)c1N [AICAR, 5-aminoimidazole-4-carboxamide riboside]
- phosphorylation of endogenous TORC2 [1]: triggered robust phosphorylation of endogenous TORC2
- effect on nuclear entry of TORC2 in cells exposed to FSK [2]: inhibited nuclear entry of wild-type, but not SerAla171 TORC2
- effect on induction of PEPCK and PGC-1α genes in response to FSK [3]: blocked induction of PEPCK and PGC-1α genes

SMILES: CN(C)C(=N)N=C(N)N [metformin]
- effect on AMPK [4]: activates AMPK
